The subject of this assay is SEM cells. Nature of the assay: Proliferation assay in SEM leukemia cells. Type of assay: cell-based. The conditions noted are these: read-out: IC50, inhibition of proliferation. The protocol:
Dose Dependent Inhibition of Proliferation The 100 compounds selected from the initial in silico screen were assayed for inhibition of proliferation in two leukemia cell lines, SEM and P12 by Cell Titer Glo. The cells for the proliferation assay were spun down and re-suspended. The cell suspension was then divided and the compound to be tested added in desired concentrations and subsequently plated. Following an incubation period, the Cell Titer Glo reagent (Promega CellTiter 96® Aqueous Non-Radioactive Cell Proliferation Assay) was added and allowed to incubate. The absorbance is subsequently measured at 490 nm using a plate reader. Each compound was analyzed for its effects on cell proliferation.
The lead compound, i.e. Compound 1, was analyzed for its effect on cell proliferation at various doses on three different leukemia cell lines: SEM, P12, and Loucy. In order to quantitate the percentage inhibition of cell proliferation, Cell Titer Glo analysis was completed as described in Example 2 above.
FIGS. 3a-3c show three graphs illustrating the dose dependent inhibition of proliferation of Compound 1 in SEM, P12, and Loucy cells as measured by MTS assay. […] Compound 1 was further analyzed for its effect on cell apoptosis and cell death using a flow based assay using Annexin V staining. […]

In the case of `CCc1ccc(CN(C)C(=O)CCc2nnc(CCc3c[nH]c4ccccc34)o2)nc1` (racemic) [Compound 1], the IC50 worked out at 43.8 µM.

The values are drawn from patent publication US11427574B2, “Compounds for treating Rac-GTPase mediated disorder” (Children's Medical Center Corporation, priority 2015, dated 2022).
